# Reference: publication PMC8184619 (Molecular immunology, 2021)
# Assays:
# Assay type in all cases: cell-based
# [1] = tested on: T4H2 TCR-transduced CD8+ Jurkat T cells
# [2] = tested on: R6C12 TCR-transduced CD8+ Jurkat T cells
# [3] = tested on: SILv44 TCR-transduced CD8+ Jurkat T cells
smiles,measurement,setting,value
CC[C@H](C)[C@H](N)C(=O)N[C@@H](CC(C)C)C(=O)N[C@@H](CC(=O)O)C(=O)N[C@@H](CCC(N)=O)C(=O)N[C@H](C(=O)N1CCC[C@H]1C(=O)N[C@@H](Cc1ccccc1)C(=O)N[C@@H](CO)C(=O)N[C@H](C(=O)O)C(C)C)C(C)C [T2Leu],EC50,[1],300 ± 100 nM
same,EC50,[2],11000 ± 3000 nM
same,EC50,[3],1400 ± 300 nM
